3 molecules from US20100029544A1, “Composition” (priority 2006, published 2010) can be followed below.

Data set [1] in a line: Loading of griseofulvin into QCPAA aggregates (solubilisation). The settings on record: thermodynamic from solid; excess drug sonicated in distilled water, filtered; read-out: intrinsic (aqueous) solubility of griseofulvin. Type of data set: physicochemical. How it is done:
Drug loading was then achieved by probe sonication of the drugs in the presence of polymer aggregates in distilled water. Polymer, drug solutions with varying polymer: drug weight ratios were prepared. […] The aqueous solubility of griseofulvin was determined by sonicating excess drugs in distilled water. The solution was then filtered and analysed as described earlier. A griseofulvin calibration curve was prepared using various standard solutions (1-30 μgml^−1, R^2=0.993).

A short description of data set [2]: Loading of propofol into QCPAA or CePAA (solubilisation). The method, then: Drug loading was carried out as described above. To determine the concentration of encapsulated drug, the solutions were filtered (0.45 μm) and the filtrates were dissolved in methanol and subsequently analysed using an ultraviolet-visible spectrophotometer at the wavelength of 272 nm. A propofol calibration graph was prepared using various standard solutions (0.012-0.16 mgml^−1, R^2=0.998). The filtered formulations were sized using photon correlation spectroscopy and imaged by scanning electron microscopy (SEM).

A further data set relates to Caco-2 cells. Briefly: Intracellular localisation study (PK4 fluorescence microscopy). Format: cell-based, human. The settings on record: PK4 20 μM alone, 37° C. The source says: The intracellular polymer uptake was studied using an experimental anticancer drug named PK4 (bis-naphthalimidopropyl spermine). […] Due to the inherent fluorescence of PK4, the uptake of PK4 into cells can be visualised using Fluorescence Microscopy. Caco-2 cells (human colorectal cancer cells) were maintained in Dulbecco's Modified Eagle's Medium (DMEM) supplemented with 10% foetal calf serum (FCS), 1% non-essential amino acids and 1% L-glutamine and 1% penicillin/streptomycin at 10% CO2, 95% humidity and 37° C. […] The controls were 1) polymer only solutions (0.1 μml^−1), 2) PK4 only solutions (20 μM) and 3) medium. At specific time intervals the cells were photographed using a Leica DMRB fluorescence microscopy (Leica Microsystems, UK). The experiment above was repeated with the cells incubated at 4° C. instead of 37° C.

Values after ≈ are worked out from the molar mass of the structure shown.

As for `COC1=CC(=O)C[C@@H](C)[C@]12Oc1c(Cl)c(OC)cc(OC)c1C2=O` [griseofulvin], the solubility in data set [1] is 0.0483 ± 0.001 mg/mL (≈ 137 µM).

Molecule `CC(C)c1cccc(C(C)C)c1O` [propofol] yielded a solubility in data set [2] of 0.112 mg/mL (≈ 628 µM). With `O=C1c2cccc3cccc(c23)C(=O)N1CCCNCCCNCCCCNCCCNCCCN1C(=O)c2cccc3cccc(c23)C1=O` [PK4, bis-naphthalimidopropyl spermine], the “time until fluorescence was detected in cells” value in the data set with Caco-2 cells came to 4.5 h.
